Measured values reported in ChEMBL document CHEMBL1201862, “PubChem BioAssay data set” (2004).
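Five compound concentrations were applied to cells in 96-well plates for 48 hours; endpoints were derived by simple linear interpolation of the resulting dose-response curve. GI50 is the concentration that inhibits growth by half.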 Calls of active or inactive are those of the source. Cut-off read from the data, not from the text of the source: active = GI50 up to about 1.1 µM and inactive = higher.

Columns and labels:
Assay in all cases: NCI anticancer screen, dose series, 48 h
SN12C = test system: SN12C
Hs-578T = test system: Hs-578T
MDA-MB-435 = test system: MDA-MB-435
NCI-H23 = test system: NCI-H23
BT-549 = test system: BT-549
U-251 = test system: U-251
UACC-62 = test system: UACC-62
UACC-257 = test system: UACC-257
MCF7 = test system: MCF7
SK-OV-3 = test system: SK-OV-3
RPMI-8226 = test system: RPMI-8226
RXF 393 = test system: RXF 393
OVCAR-3 = test system: OVCAR-3
MOLT-4 = test system: MOLT-4
HT-29 = test system: HT-29
HCT-116 = test system: HCT-116
HOP-92 = test system: HOP-92
SNB-19 = test system: SNB-19
MDA-MB-231 = test system: MDA-MB-231
HCT-15 = test system: HCT-15
CAKI-1 = test system: CAKI-1
A549 = test system: A549
K562 = test system: K562
786-0 = test system: 786-0
IGROV-1 = test system: IGROV-1
EKVX = test system: EKVX
DU-145 = test system: DU-145
NCI-H460 = test system: NCI-H460
NCI-H522 = test system: NCI-H522
SK-MEL-28 = test system: SK-MEL-28
SF-295 = test system: SF-295
OVCAR-5 = test system: OVCAR-5
HOP-62 = test system: HOP-62
SK-MEL-5 = test system: SK-MEL-5
COLO 205 = test system: COLO 205
SW-620 = test system: SW-620
M14 = test system: M14
NCI/ADR-RES = test system: NCI/ADR-RES
ACHN = test system: ACHN
SK-MEL-2 = test system: SK-MEL-2
UO-31 = test system: UO-31
HCC 2998 = test system: HCC 2998
SF-539 = test system: SF-539
PC-3 = test system: PC-3
CCRF-CEM = test system: CCRF-CEM
OVCAR-8 = test system: OVCAR-8
SF-268 = test system: SF-268
MDA-N = test system: MDA-N
OVCAR-4 = test system: OVCAR-4
SR = test system: SR
KM12 = test system: KM12
Malme-3M = test system: Malme-3M
A498 = test system: A498
HL-60 = test system: HL-60
T47D = test system: T47D
LOX IMVI = test system: LOX IMVI
TK-10 = test system: TK-10
SNB-75 = test system: SNB-75
NCI-H226 = test system: NCI-H226

CC(=O)OCC1OC(N2C(=S)N[C@H]([C@@H](O)[C@H](O)[C@H](O)CO)[C@H]2O)C(OC(C)=O)C(OC(C)=O)C1OC(C)=O (some centres not stated)
GI50 (SN12C): > 100 µM (inactive)
GI50 (Hs-578T): > 100 µM (inactive)
GI50 (MDA-MB-435): > 100 µM (inactive)
GI50 (NCI-H23): > 100 µM (inactive)
GI50 (BT-549): > 100 µM (inactive)
GI50 (U-251): > 100 µM (inactive)
GI50 (UACC-62): > 100 µM (inactive)
GI50 (UACC-257): > 100 µM (inactive)
GI50 (MCF7): > 100 µM (inactive)
GI50 (SK-OV-3): > 100 µM (inactive)
GI50 (RPMI-8226): > 100 µM (inactive)
GI50 (RXF 393): > 100 µM (inactive)
GI50 (OVCAR-3): > 100 µM (inactive)
GI50 (MOLT-4): > 100 µM (inactive)
GI50 (HT-29): > 100 µM (inactive)
GI50 (HCT-116): > 100 µM (inactive)
GI50 (HOP-92): > 100 µM (inactive)
GI50 (SNB-19): > 100 µM (inactive)
GI50 (MDA-MB-231): > 100 µM (inactive)
GI50 (HCT-15): > 100 µM
GI50 (CAKI-1): > 100 µM (inactive)
GI50 (A549): > 100 µM (inactive)
GI50 (K562): > 100 µM (inactive)
GI50 (786-0): > 100 µM (inactive)
GI50 (IGROV-1): > 100 µM (inactive)
GI50 (EKVX): > 100 µM (inactive)
GI50 (DU-145): > 100 µM (inactive)
GI50 (NCI-H460): > 100 µM (inactive)
GI50 (NCI-H522): > 100 µM (inactive)
GI50 (SK-MEL-28): > 100 µM (inactive)
GI50 (SF-295): > 100 µM (inactive)
GI50 (OVCAR-5): > 100 µM (inactive)
GI50 (HOP-62): > 100 µM (inactive)
GI50 (SK-MEL-5): > 100 µM (inactive)
GI50 (COLO 205): > 100 µM (inactive)
GI50 (SW-620): > 100 µM (inactive)
GI50 (M14): > 100 µM (inactive)
GI50 (NCI/ADR-RES): > 100 µM (inactive)
GI50 (ACHN): > 100 µM (inactive)
GI50 (SK-MEL-2): > 100 µM (inactive)
GI50 (UO-31): > 100 µM (inactive)
GI50 (HCC 2998): > 100 µM (inactive)
GI50 (SF-539): > 100 µM (inactive)
GI50 (PC-3): > 100 µM (inactive)
GI50 (CCRF-CEM): > 100 µM (inactive)
GI50 (OVCAR-8): > 100 µM (inactive)
GI50 (SF-268): > 100 µM (inactive)
GI50 (MDA-N): > 100 µM (inactive)
GI50 (OVCAR-4): > 100 µM (inactive)
GI50 (SR): > 100 µM (inactive)
GI50 (KM12): > 100 µM (inactive)

COc1cc2c(cc1OC)C1CN3CCCC3C(O)C1c1cc(OC)c(OC)cc1-2 (configuration not stated)
GI50 (SN12C): > 100 µM (inactive)
GI50 (Hs-578T): > 100 µM (inactive)
GI50 (MDA-MB-435): > 100 µM (inactive)
GI50 (NCI-H23): > 100 µM (inactive)
GI50 (BT-549): > 100 µM (inactive)
GI50 (Malme-3M): > 100 µM (inactive)
GI50 (U-251): > 100 µM (inactive)
GI50 (UACC-62): > 100 µM (inactive)
GI50 (UACC-257): > 100 µM (inactive)
GI50 (A498): > 100 µM (inactive)
GI50 (HL-60): > 100 µM (inactive)
GI50 (MCF7): > 100 µM (inactive)
GI50 (SK-OV-3): > 100 µM (inactive)
GI50 (T47D): 15.3 µM (inactive)
GI50 (RPMI-8226): > 100 µM (inactive)
GI50 (RXF 393): 82.8 µM (inactive)
GI50 (LOX IMVI): > 100 µM (inactive)
GI50 (MOLT-4): > 100 µM (inactive)
GI50 (HT-29): > 100 µM (inactive)
GI50 (HCT-116): > 100 µM (inactive)
GI50 (HOP-92): > 100 µM (inactive)
GI50 (SNB-19): > 100 µM (inactive)
GI50 (MDA-MB-231): > 100 µM (inactive)
GI50 (HCT-15): > 100 µM
GI50 (CAKI-1): > 100 µM (inactive)
GI50 (A549): > 100 µM (inactive)
GI50 (K562): > 100 µM (inactive)
GI50 (786-0): > 100 µM (inactive)
GI50 (IGROV-1): > 100 µM (inactive)
GI50 (EKVX): > 100 µM (inactive)
GI50 (DU-145): > 100 µM (inactive)
GI50 (NCI-H460): > 100 µM (inactive)
GI50 (NCI-H522): > 100 µM (inactive)
GI50 (SK-MEL-28): > 100 µM (inactive)
GI50 (SF-295): > 100 µM (inactive)
GI50 (OVCAR-5): > 100 µM (inactive)
GI50 (HOP-62): 40.2 µM (inactive)
GI50 (SK-MEL-5): > 100 µM (inactive)
GI50 (COLO 205): > 100 µM (inactive)
GI50 (SW-620): > 100 µM (inactive)
GI50 (M14): > 100 µM (inactive)
GI50 (NCI/ADR-RES): > 100 µM (inactive)
GI50 (ACHN): > 100 µM (inactive)
GI50 (SK-MEL-2): > 100 µM (inactive)
GI50 (TK-10): > 100 µM (inactive)
GI50 (UO-31): > 100 µM (inactive)
GI50 (HCC 2998): > 100 µM (inactive)
GI50 (CCRF-CEM): 69.3 µM (inactive)
GI50 (OVCAR-8): > 100 µM (inactive)
GI50 (SF-268): > 100 µM (inactive)
GI50 (MDA-N): > 100 µM (inactive)
GI50 (OVCAR-4): > 100 µM (inactive)
GI50 (SR): > 100 µM (inactive)
GI50 (KM12): > 100 µM (inactive)

COc1cc(C2C3=C(COC3=O)OC(C)(C)Oc3cc4c(cc32)OCO4)cc(OC)c1OC (configuration not stated)
GI50 (SN12C): 0.466 µM (active)
GI50 (Hs-578T): 0.301 µM (active)
GI50 (MDA-MB-435): 0.167 µM (active)
GI50 (NCI-H23): 0.384 µM (active)
GI50 (BT-549): 6.67 µM (inactive)
GI50 (Malme-3M): > 37.8 µM (inactive)
GI50 (U-251): 0.447 µM (active)
GI50 (UACC-62): 0.35 µM (active)
GI50 (UACC-257): 1.17 µM (inactive)
GI50 (SNB-75): 0.253 µM (active)
GI50 (A498): 0.281 µM (active)
GI50 (HL-60): 0.236 µM (active)
GI50 (MCF7): 0.415 µM (active)
GI50 (SK-OV-3): 0.476 µM (active)
GI50 (RPMI-8226): 0.444 µM (active)
GI50 (RXF 393): 0.259 µM (active)
GI50 (OVCAR-3): 0.447 µM (active)
GI50 (LOX IMVI): 0.331 µM (active)
GI50 (MOLT-4): 0.453 µM (active)
GI50 (HT-29): 0.258 µM (active)
GI50 (HCT-116): 0.318 µM (active)
GI50 (HOP-92): 3.58 µM (inactive)
GI50 (SNB-19): 0.245 µM (active)
GI50 (MDA-MB-231): 0.358 µM (active)
GI50 (HCT-15): 0.372 µM
GI50 (CAKI-1): 2.27 µM (inactive)
GI50 (A549): 0.344 µM (active)
GI50 (K562): 0.353 µM (active)
GI50 (786-0): 0.293 µM (active)
GI50 (IGROV-1): 0.521 µM (active)
GI50 (EKVX): 0.366 µM (active)
GI50 (DU-145): 0.34 µM (active)
GI50 (NCI-H460): 0.365 µM (active)
GI50 (NCI-H522): 0.278 µM (active)
GI50 (SK-MEL-28): 0.296 µM (active)
GI50 (SF-295): 0.222 µM (active)
GI50 (OVCAR-5): 3.72 µM (inactive)
GI50 (HOP-62): 0.509 µM (active)
GI50 (SK-MEL-5): 0.348 µM (active)
GI50 (COLO 205): 0.236 µM (active)
GI50 (SW-620): 0.348 µM (active)
GI50 (NCI-H226): 0.885 µM (active)
GI50 (M14): 0.281 µM (active)
GI50 (NCI/ADR-RES): 0.299 µM (active)
GI50 (ACHN): 0.682 µM (active)
GI50 (SK-MEL-2): 0.673 µM (active)
GI50 (UO-31): 0.426 µM (active)
GI50 (HCC 2998): 0.535 µM (active)
GI50 (SF-539): 0.212 µM (active)
GI50 (PC-3): 0.344 µM (active)
GI50 (CCRF-CEM): 0.395 µM (active)
GI50 (OVCAR-8): 0.342 µM (active)
GI50 (SF-268): 0.405 µM (active)
GI50 (MDA-N): 0.212 µM (active)
GI50 (OVCAR-4): 3.3 µM (inactive)
GI50 (SR): 0.195 µM (active)
GI50 (KM12): 0.212 µM (active)
